# Experimental data as given in paper PMC4217095 (Emerging Microbes & Infections, 2014).
# Biological target: MDk/W452(H5N8) NA (Influenza A virus, UniProt A0A088CBR8)
# Assay type: biochemical
row,SMILES,Sensitivity of virus to NA inhibitor (assessment of the IC50)
1,"CCC(CC)[C@H](NC(C)=O)[C@@H]1[C@H](O)[C@@H](C(=O)O)C[C@H]1N=C(N)N [Peramivir, peramivir]",sensitive
2,"CC(=O)N[C@H]1[C@H]([C@H](O)[C@H](O)CO)OC(C(=O)O)=C[C@@H]1N=C(N)N [Zanamivir, zanamivir]",sensitive
